{"source": "patent US20210352892A1", "about": "“MACROMOLECULAR AND NONPARTICULATE AGROCHEMICALS TO REDUCE VAPOR DRIFT” (University of Utah Research Foundation, priority 2019, published 2021)", "origin": "cited, not measured here", "conditions": "at 25 ° C.", "data": [{"compound": "COc1c(Cl)ccc(Cl)c1C(=O)O", "note": "[dicamba, 2-methoxy-3,6-dicholorobenzoic acid]", "values": [{"measurement": "vapor pressure", "value": 4.5, "unit": "mPa"}]}]}
